Read-outs that look alike come from different tables or passages of the source.

The target in data set [1] is T1, TRα ligand-binding domain (Homo sapiens, UniProt P10827).
T1 construct: the receptor LBDs expressed as glutathione S-transferase (GST) fusion proteins; purchased
Description: TRa-coa LanthaScreen TR-FRET coactivator (SRC-2 peptide) recruitment, agonist (TOX21_TRA_COA_Agonist_Followup_ratio, aeid 2230). The class given is biochemical.

Data set [2] has as its system thyroid hormone receptor (endogenous TRα and TRβ). The data set can be described thus: GH3-TRE-Ag-Followup confirmation (TOX21_TR_LUC_GH3_Agonist_Followup, aeid 2226). The format is cell-based, rat.
In data set [3] the test system is thyroid hormone receptor (TR). The data set can be described thus: Classification of TR actives across characterization assays (TR-Ag / RXR-Ag; TR model binary). Summed up:
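Pharmaceuticals excluded; actives called from GH3-TRE qHTS (agonist, antagonist, viability) on 8,305 chemicals. Confirmation of 84 selected chemicals used GH3-TRE-Ag, mammalian one-hybrid TRβ and RXRα UAS-bla HEK 293T specificity screens, parental HEK293T viability, and two TR:coactivator recruitment assays.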

The target in data set [4] is T2, human TRβ ligand-binding domain (Homo sapiens, UniProt P10828).
T2 sequence (P10828 217-461 limits assumed): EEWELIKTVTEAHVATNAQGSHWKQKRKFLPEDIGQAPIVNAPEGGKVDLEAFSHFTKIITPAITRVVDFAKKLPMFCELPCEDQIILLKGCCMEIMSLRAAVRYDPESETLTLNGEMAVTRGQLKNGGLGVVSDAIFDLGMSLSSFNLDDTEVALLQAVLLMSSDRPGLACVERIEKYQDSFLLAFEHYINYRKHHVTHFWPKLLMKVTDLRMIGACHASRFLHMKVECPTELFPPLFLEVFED
The data set can be described thus: TRb-bla agonist mammalian one-hybrid beta-lactamase assay (TOX21_TRB_BLA_Agonist_Followup_ratio, aeid 2236). The class given is cell-based. On the set-up: host or cells: GeneBLAzer UAS-bla HEK 293T.

Data set [5] concerns Tox21 cell viability assays (different cell types). Description: Global cytotoxicity: eighteen Tox21 cell viability assays. The format is cell-based.
Assay in data set [6]: as above
The format is cell-based.

Data set [7] concerns the target T2, human TRβ ligand-binding domain. Description: TRb-coa LanthaScreen TR-FRET coactivator (SRC-2 peptide) recruitment, agonist (TOX21_TRB_COA_Agonist_Followup_ratio, aeid 2244). The class given is biochemical. On the set-up: host or cells: GeneBLAzer UAS-bla HEK 293T.
The next data set deals with T3, human RXRα (Homo sapiens, UniProt P19793).
T3 construct: host or cells: GeneBLAzer UAS-bla HEK 293T
T3 sequence (P19793 227-458 limits assumed): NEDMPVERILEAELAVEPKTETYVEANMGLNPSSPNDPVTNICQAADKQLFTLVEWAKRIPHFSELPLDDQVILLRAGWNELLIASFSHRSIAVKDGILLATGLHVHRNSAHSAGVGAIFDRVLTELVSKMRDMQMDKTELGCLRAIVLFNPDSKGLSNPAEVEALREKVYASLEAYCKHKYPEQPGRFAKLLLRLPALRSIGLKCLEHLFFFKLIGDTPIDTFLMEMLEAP
Description: RXRa-bla-Ag mammalian one-hybrid beta-lactamase assay (TOX21_TR_RXR_BLA_Agonist_Followup_ratio, aeid 2253). The format is cell-based.

Data set [8] has as its system thyroid hormone receptor (endogenous TRα and TRβ). Description: GH3-TRE-Ag primary qHTS, luciferase reporter, agonist mode (TOX21_TR_LUC_GH3_Agonist, aeid 803). The format is cell-based, rat.

T1 sequence (P10827 163-410 isoform P10827-2 limits assumed, other chains not shown): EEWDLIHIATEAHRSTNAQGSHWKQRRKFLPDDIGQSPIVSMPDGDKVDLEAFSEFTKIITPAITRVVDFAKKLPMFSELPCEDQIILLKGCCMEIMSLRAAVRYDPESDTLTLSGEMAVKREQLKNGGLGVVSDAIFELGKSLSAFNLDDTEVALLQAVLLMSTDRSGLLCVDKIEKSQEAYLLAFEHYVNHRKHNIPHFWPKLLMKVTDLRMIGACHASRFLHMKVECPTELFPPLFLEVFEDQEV

`CSCC[C@H](NC(=O)[C@H](Cc1ccc(OS(=O)(=O)O)cc1)NC(=O)[C@@H](N)CC(=O)O)C(=O)NCC(=O)N[C@@H](Cc1c[nH]c2ccccc12)C(=O)N[C@@H](CCSC)C(=O)N[C@@H](CC(=O)O)C(=O)N[C@@H](Cc1ccccc1)C(N)=O` [Sincalide, reference compound] displayed an AC50 of over 92 µM. In addition, the AC50 in data set [1] (cell-free coactivator recruitment, read-out: TRa-coa-Ag AC50) is over 92 µM. Besides, in [1] (hit call from tcpl, agonist), the TRa-coa hitc was found to be 0. The Emax in data set [1] (read-out: EMax (% of Control) tra-coa-agonist-followup-1) is -0.4%. For the same compound, the “EMax (% of Control) gh3-tre-agonist-followup-1_agonist” value in data set [2] is reported as 19.9 % of Control. In addition, the AC50 in data set [2] (confirmation, agonist mode, read-out: GH3-TRE-Ag-Followup AC50) is 8.59 µM. In [2] (hit call from tcpl), this compound came in with a GH3-TRE-Ag-Followup hitc of 0. Also, the “Categorization Code” value in data set [3] (TR agonist characterization) is reported as “RXR-Ag”. In [3] (TR-Ag = TR agonist, RXR-Ag = RXR agonist), the Classification result is reported as “RXR-Ag”. Further, the AC50 in data set [4] (HEK 293T one-hybrid, agonist mode, read-out: TRb-bla-Ag AC50) is over 92 µM. This compound showed a TRb-bla hitc in data set [4] (hit call from tcpl, agonist) of 0. In [5], the “GLOBAL CYTOTOXICITY cytotox.median” value was over 92 and the “GLOBAL CYTOTOXICITY cytotox.number_Active” value is reported as 0. In data set [6], this compound displayed an AC50 of over 92 µM. In addition, the AC50 in [7] (cell-free coactivator recruitment, read-out: TRb-coa-Ag AC50) was over 92 µM. In [7] (hit call from tcpl, agonist), this compound yielded a TRb-coa hitc of 0. For the same compound, the Emax in [7] (read-out: EMax (% of Control) trb-coa-agonist-followup-1) is -0.125%. In addition, the AC50 at human RXRα (HEK 293T one-hybrid, agonist mode, inactive set to 1,000, read-out: RXRa-bla-Ag AC50) was found to be 10.5 µM. This compound had a tr-followup-rxr-bla-agonist-1 hitc on human RXRα (hit call from tcpl) of 1. Moreover, the Emax on human RXRα (read-out: EMax (% of Control) tr-followup-rxr-bla-agonist-1) came to 36.1%. Also, the “EMax (% of Control) gh3-tre-agonist” value in data set [8] is given as 80.1 % of Control. For the same compound, in [8] (hit call from tcpl), the “GH3-TRE-Ag AC50 hitc” value turned out to be 1. In [8] (primary qHTS, agonist mode, 24 h, top concentration 92 μM, read-out: GH3-TRE-Ag AC50), the AC50 is 12.4 µM. This compound registered a TR_LUC_GH3_Antagonist_viability hitc in the data set with GH3-TRE-Luc cell line of 0.

The values above are taken from paper PMC6792352, “Limited Chemical Structural Diversity Found to Modulate Thyroid Hormone Receptor in the Tox21 Chemical Library” (Environmental Health Perspectives, 2019).
